The values below come from paper PMC5218480 (PLoS ONE, 2017).

The test has as its system MV-4-11 cells. As to the kind of experiment: Gene expression microarray analysis (Affymetrix PrimeView) and GSEA. Type of test: cell-based, human. On the set-up: RFU PODN (11730768_x_at) / Fold change /veh PODN (11730768_x_at) / RFU LINC00158 (11744669_a_at) / Fold change /veh LINC00158 (11744669_a_at) / RFU DUSP10 (11751237_a_at) / Fold change /veh DUSP10 (11751237_a_at) / RFU ID3 (11757404_x_at) / Fold change /veh ID3 (11757404_x_at) / RFU PLEKHG5 (11737974_s_at) / Fold change /veh PLEKHG5 (11737974_s_at) / RFU LRRC4B (11730491_at) / Fold change /veh LRRC4B (11730491_at) / RFU GIMAP4 (11747438_a_at) / Fold change /veh GIMAP4 (11747438_a_at) / RFU KRT8 (11758183_x_at) / Fold change /veh KRT8 (11758183_x_at) / RFU CNN1 (11734310_a_at) / Fold change /veh CNN1 (11734310_a_at) / RFU VPS37D (11726825_at) / Fold change /veh VPS37D (11726825_at) / RFU C10orf10 (11716522_x_at) / Fold change /veh C10orf10 (11716522_x_at) / RFU KIR2DL2 /// KIR2DL4 /// KIR2DL5A /// KIR2DL5B /// KIR2DS1 /// KIR2DS2 /// KIR2DS3 /// KIR2DS4 /// KIR3DL3 /// KIR3DL3 /// KIR3DS1 (11738374_at) / Fold change /veh KIR2DL2 /// KIR2DL4 /// KIR2DL5A /// KIR2DL5B /// KIR2DS1 /// KIR2DS2 /// KIR2DS3 /// KIR2DS4 /// KIR3DL3 /// KIR3DL3 /// KIR3DS1 (11738374_at) / RFU C1QL1 (11718748_at) / Fold change /veh C1QL1 (11718748_at) / RFU TMPRSS4 (11747572_a_at) / Fold change /veh TMPRSS4 (11747572_a_at) / RFU HAMP (11756126_x_at) / Fold change /veh HAMP (11756126_x_at) / RFU RNFT2 (11725882_a_at) / Fold change /veh RNFT2 (11725882_a_at) / RFU NR4A2 (11747474_a_at) / Fold change /veh NR4A2 (11747474_a_at) / RFU ABCC12 (11746883_a_at) / Fold change /veh ABCC12 (11746883_a_at) / RFU TMEM136 (11760407_x_at) / Fold change /veh TMEM136 (11760407_x_at) / RFU CLDN22 /// WWC2 (11732394_at) / Fold change /veh CLDN22 /// WWC2 (11732394_at) / RFU HLA-DPB1 (11760878_x_at) / Fold change /veh HLA-DPB1 (11760878_x_at) / RFU SPINT1 (11716480_a_at) / Fold change /veh SPINT1 (11716480_a_at) / RFU GAP43 (11754022_s_at) / Fold change /veh GAP43 (11754022_s_at) / RFU A4GNT (11735810_at) / Fold change /veh A4GNT (11735810_at) / RFU PRB3 (11715151_x_at) / Fold change /veh PRB3 (11715151_x_at) / RFU TUBB4B (11761932_at) / Fold change /veh TUBB4B (11761932_at) / RFU CAPN14 (11732068_a_at) / Fold change /veh CAPN14 (11732068_a_at) / RFU TMCC2 (11721928_a_at) / Fold change /veh TMCC2 (11721928_a_at) / RFU IRGQ (11745062_a_at) / Fold change /veh IRGQ (11745062_a_at) / RFU FAM174B (11720279_a_at) / Fold change /veh FAM174B (11720279_a_at) / RFU TMPRSS4 (11748680_a_at) / Fold change /veh TMPRSS4 (11748680_a_at) / RFU FAM212B (11763350_a_at) / Fold change /veh FAM212B (11763350_a_at) / RFU PLEKHG5 (11743358_a_at) / Fold change /veh PLEKHG5 (11743358_a_at) / RFU ZSCAN30 (11745921_a_at) / Fold change /veh ZSCAN30 (11745921_a_at) / RFU CMKLR1 (11741424_a_at) / Fold change /veh CMKLR1 (11741424_a_at) / RFU LOC101060620 /// MAPK8IP1 (11723275_at) / Fold change /veh LOC101060620 /// MAPK8IP1 (11723275_at) / RFU SPTSSB (11747773_x_at) / Fold change /veh SPTSSB (11747773_x_at) / RFU PRSS12 (11739890_at) / Fold change /veh PRSS12 (11739890_at) / RFU BIN1 (11741810_x_at) / Fold change /veh BIN1 (11741810_x_at) / RFU WNT11 (11732464_a_at) / Fold change /veh WNT11 (11732464_a_at) / RFU C10orf10 (11716521_a_at) / Fold change /veh C10orf10 (11716521_a_at) / RFU C5orf56 (11738089_at) / Fold change /veh C5orf56 (11738089_at) / RFU CYB561 (11721691_x_at) / Fold change /veh CYB561 (11721691_x_at) / RFU ANKRD19P (11752326_a_at) / Fold change /veh ANKRD19P (11752326_a_at) / RFU OR2T12 /// OR2T33 /// OR2T8 (11738714_s_at) / Fold change /veh OR2T12 /// OR2T33 /// OR2T8 (11738714_s_at) / RFU VCAN (11748164_a_at) / Fold change /veh VCAN (11748164_a_at) / RFU JSRP1 (11732532_at) / Fold change /veh JSRP1 (11732532_at) / RFU KRTAP10-11 (11738290_x_at) / Fold change /veh KRTAP10-11 (11738290_x_at) / RFU MYO3A (11730013_a_at) / Fold change /veh MYO3A (11730013_a_at) / RFU EBF3 (11725865_a_at) / Fold change /veh EBF3 (11725865_a_at) / RFU CAMK2N1 (11719241_x_at) / Fold change /veh CAMK2N1 (11719241_x_at) / RFU C5orf56 (11738088_a_at) / Fold change /veh C5orf56 (11738088_a_at) / RFU OLFML3 (11715873_a_at) / Fold change /veh OLFML3 (11715873_a_at) / RFU LOC100653217 /// NTM (11731650_a_at) / Fold change /veh LOC100653217 /// NTM (11731650_a_at) / RFU MAPK11 (11762145_a_at) / Fold change /veh MAPK11 (11762145_a_at) / RFU FIZ1 (11724087_x_at) / Fold change /veh FIZ1 (11724087_x_at) / RFU OASL (11726364_x_at) / Fold change /veh OASL (11726364_x_at) / RFU SOX15 (11748057_x_at) / Fold change /veh SOX15 (11748057_x_at) / RFU CD79A (11719716_a_at) / Fold change /veh CD79A (11719716_a_at) / RFU HIST1H1D (11736915_at) / Fold change /veh HIST1H1D (11736915_at) / RFU CASKIN2 (11723855_a_at) / Fold change /veh CASKIN2 (11723855_a_at) / RFU LOC730098 (11760151_x_at) / Fold change /veh LOC730098 (11760151_x_at) / RFU OR4N2 (11742367_at) / Fold change /veh OR4N2 (11742367_at) / RFU PRRT2 (11749266_a_at) / Fold change /veh PRRT2 (11749266_a_at) / RFU SNX32 (11753110_a_at) / Fold change /veh SNX32 (11753110_a_at) / RFU CDHR5 (11726645_a_at) / Fold change /veh CDHR5 (11726645_a_at) / RFU RCAN1 (11760418_a_at) / Fold change /veh RCAN1 (11760418_a_at) / RFU FAM167A (11723789_a_at) / Fold change /veh FAM167A (11723789_a_at) / RFU FAM26E (11764081_at) / Fold change /veh FAM26E (11764081_at) / RFU ISYNA1 (11749810_s_at) / Fold change /veh ISYNA1 (11749810_s_at) / RFU ACY1 (11761880_at) / Fold change /veh ACY1 (11761880_at) / RFU 11764098_at / Fold change /veh 11764098_at / RFU SAMD14 (11745864_x_at) / Fold change /veh SAMD14 (11745864_x_at) / RFU NPB (11741838_a_at) / Fold change /veh NPB (11741838_a_at) / RFU TMPRSS6 (11731388_a_at) / Fold change /veh TMPRSS6 (11731388_a_at) / RFU KRTAP10-2 (11738614_at) / Fold change /veh KRTAP10-2 (11738614_at) / RFU ARHGAP8 /// PRR5-ARHGAP8 (11727945_x_at) / Fold change /veh ARHGAP8 /// PRR5-ARHGAP8 (11727945_x_at) / RFU KRTAP5-7 /// NADSYN1 (11734609_at) / Fold change /veh KRTAP5-7 /// NADSYN1 (11734609_at) / RFU RASL12 (11751679_a_at) / Fold change /veh RASL12 (11751679_a_at) / RFU CDKN2B (11736163_a_at) / Fold change /veh CDKN2B (11736163_a_at) / RFU PRF1 (11729649_at) / Fold change /veh PRF1 (11729649_at) / RFU, ZNF638 /// ZNF638-IT1 / Fold change vs veh, ZNF638 /// ZNF638-IT1 / RFU, PANK3 / Fold change vs veh, PANK3 / RFU, SH3YL1 / Fold change vs veh, SH3YL1 / RFU, ZEB2 / Fold change vs veh, ZEB2 / RFU, NRIP1 / Fold change vs veh, NRIP1 / RFU, PTTG1IP / Fold change vs veh, PTTG1IP / RFU, CAPN2 / Fold change vs veh, CAPN2 / RFU, MED14 / Fold change vs veh, MED14 / RFU, SNORA58 / Fold change vs veh, SNORA58 / RFU, C1orf63 / Fold change vs veh, C1orf63 / RFU, LRRFIP1 / Fold change vs veh, LRRFIP1 / RFU, NDUFAF7 / Fold change vs veh, NDUFAF7 / RFU, SLC12A2 / Fold change vs veh, SLC12A2 / RFU, IBTK / Fold change vs veh, IBTK / RFU, ESF1 / Fold change vs veh, ESF1 / Fold change vs veh, TMEM50B / RFU, TAOK1 / Fold change vs veh, TAOK1 / RFU, ACBD3 / Fold change vs veh, ACBD3 / RFU, TMA16 / Fold change vs veh, TMA16 / RFU, RWDD3 / Fold change vs veh, RWDD3 / RFU, BCAT1 / Fold change vs veh, BCAT1 / RFU, EDEM3 / Fold change vs veh, EDEM3 / RFU, TMEM33 / Fold change vs veh, TMEM33 / RFU, WDR75 / Fold change vs veh, WDR75 / RFU, AHCTF1 / Fold change vs veh, AHCTF1 / RFU, TFRC / Fold change vs veh, TFRC / RFU, ZDHHC17 / Fold change vs veh, ZDHHC17 / RFU, NOM1 / Fold change vs veh, NOM1 / RFU, ARL8B / Fold change vs veh, ARL8B / RFU, ZBTB11 / Fold change vs veh, ZBTB11 / RFU, TAMM41 / Fold change vs veh, TAMM41 / RFU, KIAA1704 /// LOC100996395 / Fold change vs veh, KIAA1704 /// LOC100996395 / RFU, ING1 / Fold change vs veh, ING1 / RFU, TRMT61B / Fold change vs veh, TRMT61B / RFU, FUBP3 / Fold change vs veh, FUBP3 / RFU, TP53 / Fold change vs veh, TP53 / RFU, TNKS2 / Fold change vs veh, TNKS2 / RFU, ZFP14 / Fold change vs veh, ZFP14 / RFU, ACTR2 / Fold change vs veh, ACTR2 / RFU, PPP3R1 / Fold change vs veh, PPP3R1 / RFU, PIK3R1 / Fold change vs veh, PIK3R1 / RFU, HNRNPA1 / Fold change vs veh, HNRNPA1 / RFU, RNF170 / Fold change vs veh, RNF170 / RFU, ZNF28 / Fold change vs veh, ZNF28 / RFU, RNGTT / Fold change vs veh, RNGTT / RFU, OGT / Fold change vs veh, OGT / RFU, BRD1 / Fold change vs veh, BRD1 / RFU, MARS / Fold change vs veh, MARS / RFU, ZNF655 / Fold change vs veh, ZNF655 / RFU, FAHD1 / Fold change vs veh, FAHD1 / RFU, BDP1 / Fold change vs veh, BDP1 / RFU, LRRCC1 / Fold change vs veh, LRRCC1 / RFU, ARID1A / Fold change vs veh, ARID1A / RFU, ZNF146 / Fold change vs veh, ZNF146 / RFU, ZNF330 / Fold change vs veh, ZNF330 / RFU, GPN3 / Fold change vs veh, GPN3 / RFU, C9orf123 / Fold change vs veh, C9orf123 / RFU, N4BP2L2 / Fold change vs veh, N4BP2L2 / RFU, ARFIP1 / Fold change vs veh, ARFIP1 / RFU, FAM179B / Fold change vs veh, FAM179B / RFU, BCL10 / Fold change vs veh, BCL10 / RFU, UHRF1BP1L / Fold change vs veh, UHRF1BP1L / RFU, BET1 / Fold change vs veh, BET1 / RFU, CNOT2 / Fold change vs veh, CNOT2 / RFU, ZNF268 / Fold change vs veh, ZNF268 / Fold change vs veh, ZNF507 / RFU, DGCR2 / Fold change vs veh, DGCR2 / RFU, WDSUB1 / Fold change vs veh, WDSUB1 / Fold change vs veh, HSP90B1 /// MIR3652 / RFU, ADSS / Fold change vs veh, ADSS / RFU, GK / Fold change vs veh, GK / RFU, ZNF148 / Fold change vs veh, ZNF148 / RFU, TAF9 / Fold change vs veh, TAF9 / RFU, SLC1A5 / Fold change vs veh, SLC1A5 / RFU, SLMO2 / Fold change vs veh, SLMO2 / RFU, ABCC4 / Fold change vs veh, ABCC4 / RFU, LOC101060439 /// RAP1B / Fold change vs veh, LOC101060439 /// RAP1B / RFU, RFX7 / Fold change vs veh, RFX7 / RFU, GTPBP10 / Fold change vs veh, GTPBP10 / RFU, CNEP1R1 / Fold change vs veh, CNEP1R1 / RFU, BIVM-ERCC5 /// ERCC5 / Fold change vs veh, BIVM-ERCC5 /// ERCC5 / RFU, ILF3 / Fold change vs veh, ILF3 / RFU 11762660_at / Fold change /veh 11762660_at / RFU VCAN (11757783_s_at) / Fold change /veh VCAN (11757783_s_at) / RFU DDX43 (11728927_at) / Fold change /veh DDX43 (11728927_at) / RFU KRT8 (11758188_x_at) / Fold change /veh KRT8 (11758188_x_at) / RFU NKD1 (11759106_at) / Fold change /veh NKD1 (11759106_at) / RFU SRD5A1 (11742802_a_at) / Fold change /veh SRD5A1 (11742802_a_at) / RFU TPSAB1 /// TPSB2 (11721975_s_at) / Fold change /veh TPSAB1 /// TPSB2 (11721975_s_at) / RFU GSTM3 (11746129_a_at) / Fold change /veh GSTM3 (11746129_a_at) / RFU IL23R (11737362_x_at) / Fold change /veh IL23R (11737362_x_at) / RFU TMEM51 (11727254_a_at) / Fold change /veh TMEM51 (11727254_a_at) / RFU PIWIL2 (11732686_x_at) / Fold change /veh PIWIL2 (11732686_x_at) / RFU ORM1 (11744905_x_at) / Fold change /veh ORM1 (11744905_x_at) / RFU CCDC152 (11743942_at) / Fold change /veh CCDC152 (11743942_at) / RFU ECM1 (11717891_a_at) / Fold change /veh ECM1 (11717891_a_at) / RFU IL23R (11748794_a_at) / Fold change /veh IL23R (11748794_a_at) / RFU TNFAIP8L3 (11732012_x_at) / Fold change /veh TNFAIP8L3 (11732012_x_at) / RFU MBOAT4 (11741988_at) / Fold change /veh MBOAT4 (11741988_at) / RFU 11764193_at / Fold change /veh 11764193_at / RFU TMEM53 (11763286_at) / Fold change /veh TMEM53 (11763286_at) / RFU MAGEB2 (11727129_at) / Fold change /veh MAGEB2 (11727129_at) / RFU TMEM200A (11744735_a_at) / Fold change /veh TMEM200A (11744735_a_at) / RFU CCDC152 (11751479_a_at) / Fold change /veh CCDC152 (11751479_a_at) / RFU FAM211A (11726209_a_at) / Fold change /veh FAM211A (11726209_a_at) / RFU RGS16 (11746705_a_at) / Fold change /veh RGS16 (11746705_a_at) / RFU VCAN (11755009_s_at) / Fold change /veh VCAN (11755009_s_at) / RFU RHOB (11743442_s_at) / Fold change /veh RHOB (11743442_s_at) / RFU RGS16 (11720943_a_at) / Fold change /veh RGS16 (11720943_a_at) / RFU RGS16 (11720944_at) / Fold change /veh RGS16 (11720944_at) / RFU, VPS4B / Fold change vs veh, VPS4B / RFU, CREB1 / Fold change vs veh, CREB1 / RFU, DNAJC13 / Fold change vs veh, DNAJC13 / RFU, GNAQ / Fold change vs veh, GNAQ / RFU, CDK5R1 / Fold change vs veh, CDK5R1 / RFU, ZRANB3 / Fold change vs veh, ZRANB3 / RFU, CUL4A / Fold change vs veh, CUL4A / RFU, CCNY / Fold change vs veh, CCNY / RFU, UFL1 / Fold change vs veh, UFL1 / RFU, COG3 / Fold change vs veh, COG3 / RFU, DIAPH2 / Fold change vs veh, DIAPH2 / RFU, SKA2 / Fold change vs veh, SKA2 / RFU, AFF3 / Fold change vs veh, AFF3 / RFU, LMF1 / Fold change vs veh, LMF1 / RFU, IPO11 / Fold change vs veh, IPO11 / RFU, DFFB / Fold change vs veh, DFFB / RFU, FOXP1 / Fold change vs veh, FOXP1 / RFU, CARD8 / Fold change vs veh, CARD8 / RFU, STRN3 / Fold change vs veh, STRN3 / RFU, ADK / Fold change vs veh, ADK / RFU, RASSF2 / Fold change vs veh, RASSF2 / RFU, WIPF1 / Fold change vs veh, WIPF1 / RFU, LARP1B / Fold change vs veh, LARP1B / RFU, RASA1 / Fold change vs veh, RASA1 / RFU, RB1 / Fold change vs veh, RB1 / RFU, PPFIA1 / Fold change vs veh, PPFIA1 / RFU, MAT2A / Fold change vs veh, MAT2A / RFU, CCT5 / Fold change vs veh, CCT5 / RFU, WDR92 / Fold change vs veh, WDR92 / RFU, CUX1 / Fold change vs veh, CUX1 / RFU, TTC7A / Fold change vs veh, TTC7A / RFU, TMEM135 / Fold change vs veh, TMEM135 / RFU, DEPTOR / Fold change vs veh, DEPTOR / RFU, CPM / Fold change vs veh, CPM / RFU, DNAJB6 / Fold change vs veh, DNAJB6 / RFU, CACNA2D3 / Fold change vs veh, CACNA2D3 / RFU, DTX4 / Fold change vs veh, DTX4 / RFU, TFCP2 / Fold change vs veh, TFCP2 / RFU, GMCL1 /// GMCL1P1 / Fold change vs veh, GMCL1 /// GMCL1P1 / RFU, AEBP2 / Fold change vs veh, AEBP2 / RFU, SNHG1 /// SNORD22 /// SNORD25 /// SNORD26 /// SNORD27 /// SNORD28 /// SNORD29 /// SNORD31 / Fold change vs veh, SNHG1 /// SNORD22 /// SNORD25 /// SNORD26 /// SNORD27 /// SNORD28 /// SNORD29 /// SNORD31 / Fold change (Aza/veh), C12orf56 (ProbeSet 11735607_a_at) / Fold change (ACY-1035/veh), C12orf56 (ProbeSet 11735607_a_at) / Fold change (Aza/veh), FGFR1OP (ProbeSet 11751329_s_at) / Fold change (ACY-1035/veh), FGFR1OP (ProbeSet 11751329_s_at) / Fold change (Aza/veh), VPS36 (ProbeSet 11739960_a_at) / Fold change (ACY-1035/veh), VPS36 (ProbeSet 11739960_a_at) / RFU SYPL1 (11715823_x_at) / Fold change /veh SYPL1 (11715823_x_at) / RFU IGFBP7 (11715501_s_at) / Fold change /veh IGFBP7 (11715501_s_at) / RFU REEP3 (11722064_at) / Fold change /veh REEP3 (11722064_at) / RFU IGLL1 (11728026_x_at) / Fold change /veh IGLL1 (11728026_x_at): dose or concentration left out as unconfirmed. The following applies: ProbeSet 11743286_at; LIST D.

Regarding `Nc1ccc(-c2cccs2)cc1NC(=O)c1ccc2c(c1)cc(C1CC1)n2CCN1CCOCC1` [ACY-1035], the “Fold change vs veh, DTX4” value is on record as 0.97.
